This is an account of results in US20200270309A1, “MALEIMIDE GROUP-MODIFIED ANGIOGENESIS INHIBITOR HM-1 AND USE THEREOF” (NANJING ANJI BIOLOGICAL TECHNOLOGY CO., LTD, priority 2017, published 2020).

Peptide text beside a SMILES is read from it. * marks the point of attachment. X68 = O=C1C=CC(=O)N1c1ccccc1CCCCCCCCCCCC(=O)*; X60 = O=C1C=CC(=O)N1c1ccccc1CCCCCCCCCC(=O)*; X52 = O=C1C=CC(=O)N1c1ccccc1CCCCCCCC(=O)*

The subject of experiment [1] is carrageenan-induced toe swelling. The experiment in a line: Carrageenan-induced toe swelling in rats. It counts as in vivo. Particulars: SD rats; for Swelling degree 1 h: 1 h after carrageenan; for Swelling degree 3 h: 3 h after carrageenan; for Swelling degree 5 h: 5 h after carrageenan; for Swelling degree 7 h: 7 h after carrageenan. Here is the method: The rats were injected once a day, and the model group was given the same volume of normal saline for 3 d and fed normally. […] The foot swelling degree was calculated according to the following formula: foot swelling degree (mL)=foot volume after inflammation-foot volume before inflammation. The number of milliliters of overflow liquid was recorded (method: a ballpoint pen is used to circle the protruding point of the right joint as a measurement mark, and the right hind feet of each rat are sequentially placed into the volume measurer, so that the hind limbs are exposed outside the barrel, and the immersion depth is at the coincidence of the circle and the liquid level. After the foot enters the liquid, the liquid level rises, and the volume of overflow liquid is the volume of the right hind foot of the rat, and the normal volume of the right hind foot of each rat is measured in sequence).

The test system of experiment [2] is IL-1β production by mouse peritoneal macrophages. The experiment in a line: IL-1β production by mouse peritoneal macrophages (ELISA). It counts as cell-based. Particulars: for Inhibition rate: IL-1β production, vs model group; for IL-1β: mouse peritoneal macrophages, 48 h, ELISA. As to the method:
Mice were injected intraperitoneally with 1 mL of broth culture medium (containing 6% of starch). Three days later, mice peritoneal macrophages were taken aseptically and washed twice with 1640 culture medium, and the cell concentration was adjusted to 2×10^6 cells/mL. The solutions were injected into 24-well culture plates at 1 mL per well. The cells were incubated in a cell incubator for 3 h and vibrated once every 30 min to make the cells fully adhere to the wall. Then, the cells were washed twice with a culture solution to remove non-adhered cells. PBS was added to the blank group, positive drug Dex was added to the positive group, no drug was added to the model group, and polypeptides X1-X90 with low, medium and high concentrations were added to the test groups; and the cells were continuously cultured for 48 h after administration, and then centrifuged at 1000 r/min for 15 min. The supernatant was collected as a sample to be tested for IL-1β activity.
In general terms: In an ELISA, binding on a coated surface is turned into a signal by an enzyme label.

In another experiment the test system is splenic lymphocytes. As to the kind of experiment: Proliferation of splenic lymphocytes in mice (ConA, MTT). The class given is cell-based. The conditions noted are these: ConA-stimulated mouse splenic lymphocytes, 48 h. Here is the method: Spleens of mice were taken out under aseptic conditions, washed with blank 1640 culture medium 3 times, ground with a 5 mL syringe core, filtered with a 200-mesh sieve, made into a single cell suspension. The suspension was centrifuged (1000 rpm×5 min), and supernatant was removed. Red blood cells were lysed by Tris-NH4Cl, and placed in ice water bath for 4 min and centrifuged (1000 rpm×5 min). The supernatant was removed, and the cells were washed twice with sterile PBS. Finally, RPMI 1640 culture solution (5 mL) containing 10% calf serum was added to suspend the cells. The cells were counted and the cell concentration was adjusted to 5×10^6 cells/mL, and the cells were cultured in a 96-well culture plate.
Blank control group, concanavalin A (ConA) group and dexamethasone (Dex) group were set in the experiment, and polypeptide X1-X90 groups were set as test groups. After 100 μL of splenic lymphocytes suspension per well was added into each group, 100 μL of blank 1640 culture solution was added into the blank control group, ConA was added into the ConA group, Dex was added into the Dex group, and ConA was added into the test groups on the basis of adding different concentrations of polypeptides X1-X90. The cells were static cultured at 37° C. in a cell incubator for 48 h. After the cultivation was completed, 20 μL of MTT was added to each well, and the cultivation was continued for 4 h. Finally, all the solutions in each well were discarded. 100 μL DMSO was added to each well and shaken, and the OD value at 570 nm was detected with a microplate reader. Five parallel experiments were set in each well.

In experiment [3] the test system is retinal vascular endothelial nuclei. As to the kind of experiment: Neovascularization in a rat model of premature retinopathy. It counts as in vivo, rats. The conditions noted are these: dose 0.05 μM in the vitreous chamber from day 7 of modeling for one week; counted on day 14; oxygen-induced neonatal rats. As to the method:
Using a fluctuating oxygen-induced animal model, newborn rats born naturally on the same day (within 12 h) were randomly divide into three groups: an oxygen model group, an oxygen treatment group and a normal control group. The oxygen model was further divided into three sub-group model groups, and the sub-group model groups and the treatment group were all placed in a semi-closed oxygen chamber made of organic glass; medical oxygen was introduced into the chamber, and the concentration was adjusted to 80%±2% by an oxygen meter; nitrogen was introduced into the oxygen chamber after 24 h, and the oxygen concentration was adjusted to 10%±2% rapidly and maintained for 24 h. This was repeated to keep the oxygen concentration in the oxygen chamber alternating between 80% and 10% every 24 h, the oxygen concentration was maintained for 7 d, and then the rats were fed in the air. The oxygen concentration was monitored 8 times a day, and the ambient temperature in the chamber was controlled at 23° C.±2° C. Bedding was replaced, feed was added, and water and mother rats were replaced once. The normal control group was placed in the animal room feeding environment. […] The oxygen treatment group was divided into three subgroups. On day 7 of modeling, X1-[…], […]-[…] and […]-X90 were injected in the vitreous chamber respectively, and the oxygen model group and the control group were only given normal saline for one week. On day 14, after the rats were anesthetized by diethyl ether and killed, eyeballs were extracted and fixed in 40 g/L paraformaldehyde solution for 24 h. Gradient dehydration by alcohol was performed, and the eyeballs were processed by xylene to be transparent. After waxing, the eyeballs were sectioned continuously to a thickness of 4μm, and the periphery of the optic disc should be avoided as much as possible. The sections were parallel to the sagittal plane from cornea to the optic disc. Ten sections of each eyeball were randomly taken and stained with hematoxylin eosin, the number of vascular endothelial nuclei that broke through the inner limiting membrane of the retina (only the number of vascular endothelial nuclei closely related to the inner limiting membrane were counted) was counted, and statistics of the average number of cells per section per eyeball was performed. Results: In the control group, there were no vascular endothelial nuclei that broke through the inner limiting membrane of the retina and grew into vitreous body, or the vascular endothelial nuclei were occasionally found in only a few sections. In the model group, there were many vascular endothelial nuclei that broke through the inner limiting membrane of the retina, some appeared alone, and some appeared in clusters. At the same time, on some sections, these vascular endothelial nuclei were also found adjacent to deep retinal vessels, confirming that they originated from the retina rather than the vitreous body or other ocular tissues. In the treatment group, only a few vascular endothelial nuclei that broke through the inner limiting membrane of retina could be seen in the sections.

As to `C[C@H](NC(=O)CNC(=O)[C@H](CCCNC(=N)N)NC(=O)CCCCCCCc1ccccc1N1C(=O)C=CC1=O)C(=O)N[C@@H](CC(=O)O)C(=O)N[C@@H](CCCNC(=N)N)C(=O)N[C@@H](C)C(=O)NCC(=O)NCC(=O)NCC(=O)NCC(=O)N[C@@H](CCCNC(=N)N)C(=O)NCC(=O)N[C@@H](CC(=O)O)C(=O)O` [X19] (X52-RGADRAGGGGRGD-OH), in experiment [1] (2.0 mg/kg once a day for 3 d), the “Swelling degree 1 h” value was determined as 0.21 ± 0.13 mg, the “Swelling degree 3 h” value is on record as 0.33 ± 0.15 mg, the “Swelling degree 5 h” value is listed as 0.36 ± 0.17 mg and the “Swelling degree 7 h” value is 0.32 ± 0.12 mg. Further, in experiment [1] (4.0 mg/kg once a day for 3 d), the “Swelling degree 1 h” value is 0.26 ± 0.11 mg, the “Swelling degree 3 h” value is on record as 0.38 ± 0.17 mg, the “Swelling degree 5 h” value was determined as 0.42 ± 0.15 mg and the “Swelling degree 7 h” value was found to be 0.32 ± 0.18 mg. In experiment [2] (dose 0.05 μM), the Inhibition rate is on record as 37.19% and the IL-1β was determined as 591.13 ± 10.54 pg/mL. For the same compound, in experiment [2] (dose 0.1 μM), the Inhibition rate is reported as 37.27% and the IL-1β is given as 590.42 ± 10.34 pg/mL. In experiment [2] (dose 0.2 μM), the Inhibition rate came out at 37.39% and the IL-1β is recorded as 589.21 ± 12.08 pg/mL. Besides, in the experiment with splenic lymphocytes (polypeptide dose 0.05 μM), the “A570 nm/A630 nm” value is recorded as 0.5093 ± 0.0372 and the “Inhibition rate (%)” value is listed as 24.59%. Moreover, in the experiment with splenic lymphocytes (polypeptide dose 0.1 μM), the “A570 nm/A630 nm” value amounted to 0.5027 ± 0.0814 and the “Inhibition rate (%)” value is listed as 25.57%. For the same compound, in the experiment on splenic lymphocytes (polypeptide dose 0.2 μM), the “A570 nm/A630 nm” value came to 0.4978 ± 0.0481 and the “Inhibition rate (%)” value is given as 26.30%. In experiment [3], the “Nuclei count (retinal vascular endothelial nuclei, average per section per eyeball)” value was found to be 7.236 ± 1.218.
Consider `C[C@H](NC(=O)CNC(=O)[C@H](CCCNC(=N)N)NC(=O)CCCCCCCCCc1ccccc1N1C(=O)C=CC1=O)C(=O)N[C@@H](CC(=O)O)C(=O)N[C@@H](CCCNC(=N)N)C(=O)N[C@@H](C)C(=O)NCC(=O)NCC(=O)NCC(=O)NCC(=O)N[C@@H](CCCNC(=N)N)C(=O)NCC(=O)N[C@@H](CC(=O)O)C(=O)O` [X21] (X60-RGADRAGGGGRGD-OH), for which, in experiment [1] (2.0 mg/kg once a day for 3 d), the “Swelling degree 1 h” value came to 0.23 ± 0.19 mg, the “Swelling degree 3 h” value stood at 0.32 ± 0.17 mg, the “Swelling degree 5 h” value is reported as 0.39 ± 0.16 mg and the “Swelling degree 7 h” value was 0.33 ± 0.12 mg. Further, in experiment [1] (4.0 mg/kg once a day for 3 d), the “Swelling degree 1 h” value was determined as 0.25 ± 0.17 mg, the “Swelling degree 3 h” value worked out at 0.33 ± 0.13 mg, the “Swelling degree 5 h” value stood at 0.39 ± 0.14 mg and the “Swelling degree 7 h” value is 0.35 ± 0.18 mg. In experiment [2] (dose 0.05 μM), this compound displayed an Inhibition rate of 17.80% and an IL-1β of 773.58 ± 10.52 pg/mL. In experiment [2] (dose 0.1 μM), this compound showed an Inhibition rate of 32.29% and an IL-1β of 637.22 ± 12.95 pg/mL. In experiment [2] (dose 0.2 μM), this compound returned an Inhibition rate of 44.01% and an IL-1β of 526.94 ± 17.75 pg/mL. For the same compound, in the experiment with splenic lymphocytes (polypeptide dose 0.05 μM), the “A570 nm/A630 nm” value was found to be 0.5904 ± 0.0399 and the “Inhibition rate (%)” value was determined as 12.59%. Moreover, in the experiment with splenic lymphocytes (polypeptide dose 0.1 μM), the “A570 nm/A630 nm” value worked out at 0.5776 ± 0.1193 and the “Inhibition rate (%)” value amounted to 14.48%. In the experiment on splenic lymphocytes (polypeptide dose 0.2 μM), the “A570 nm/A630 nm” value is 0.4947 ± 0.1055 and the “Inhibition rate (%)” value came out at 26.75%. Moreover, in experiment [3], the “Nuclei count (retinal vascular endothelial nuclei, average per section per eyeball)” value was 7.222 ± 3.567.
In the case of `C[C@H](NC(=O)CNC(=O)[C@H](CCCNC(=N)N)NC(=O)CCCCCCCCCCCc1ccccc1N1C(=O)C=CC1=O)C(=O)N[C@@H](CC(=O)O)C(=O)N[C@@H](CCCNC(=N)N)C(=O)N[C@@H](C)C(=O)NCC(=O)NCC(=O)NCC(=O)NCC(=O)N[C@@H](CCCNC(=N)N)C(=O)NCC(=O)N[C@@H](CC(=O)O)C(=O)O` [X23] (X68-RGADRAGGGGRGD-OH), the entries for the “Swelling degree 1 h” value in experiment [1] (2.0 mg/kg once a day for 3 d) and in experiment [1] (4.0 mg/kg once a day for 3 d) were 0.28 ± 0.17 mg and 0.26 ± 0.16 mg, respectively. For the same compound, the “Swelling degree 3 h” value in experiment [1] (2.0 mg/kg once a day for 3 d) and in experiment [1] (4.0 mg/kg once a day for 3 d) was 0.34 ± 0.19 mg in each case. Further, the “Swelling degree 5 h” value in experiment [1] (2.0 mg/kg once a day for 3 d) is 0.37 ± 0.11 mg; in experiment [1] (4.0 mg/kg once a day for 3 d) it was 0.38 ± 0.13 mg. The “Swelling degree 7 h” value in experiment [1] (2.0 mg/kg once a day for 3 d) is given as 0.35 ± 0.18 mg; in experiment [1] (4.0 mg/kg once a day for 3 d), 0.34 ± 0.17 mg. Besides, the figures for the Inhibition rate in experiment [2] (dose 0.05 μM), in experiment [2] (dose 0.1 μM) and in experiment [2] (dose 0.2 μM) were 15.69%, 30.92% and 33.74%, respectively. In addition, the figures for the IL-1β in experiment [2] (dose 0.05 μM), in experiment [2] (dose 0.1 μM) and in experiment [2] (dose 0.2 μM) were 793.48 ± 19.42 pg/mL, 650.17 ± 14.98 pg/mL and 623.64 ± 12.33 pg/mL, respectively. Besides, the “A570 nm/A630 nm” value worked out at 0.5946 ± 0.0378 in the experiment with splenic lymphocytes (polypeptide dose 0.05 μM), 0.4982 ± 0.1212 with splenic lymphocytes (polypeptide dose 0.1 μM) and 0.4363 ± 0.0933 in the experiment on splenic lymphocytes (polypeptide dose 0.2 μM). The “Inhibition rate (%)” value with splenic lymphocytes (polypeptide dose 0.05 μM) was found to be 11.96%; in the experiment on splenic lymphocytes (polypeptide dose 0.1 μM), 26.24%; in the experiment with splenic lymphocytes (polypeptide dose 0.2 μM), 35.40%. Besides, the “Nuclei count (retinal vascular endothelial nuclei, average per section per eyeball)” value in experiment [3] came to 8.275 ± 1.713.
